Measured values from patent US9265837B1, “5α-androstane-3β,5,6β-triol injection and preparation method therefor” (Guangzhou Cellprotek Pharmaceuticals Ltd., priority 2010, dated 2016).

Columns and labels:
[1] = Acute toxicity (LD50), i.v. via tail vein, one-week observation; conditions: both sexes, mouse, in vivo, iv, Kunming mice, YC-6 injection of Example 3 (20 mg/ml)
Experimental: Kunming mice were caged by weight and randomly divided into 5 groups. Each group had 10 mice, with half males and half females. The YC-6 injection 10 prepared in Example 3 (20 mg/ml) was i.v. administrated via tail vein at different doses. All mice were sacrificed after one-week observation. The toxic reaction and number of death of the animals were recorded every day. LD50 and 95% confidence were calculated.

Solubility in water = type: physicochemical; conditions: background statement, no test described

With C[C@@]12CCC[C@H]1[C@@H]1C[C@@H](O)[C@@]3(O)C[C@@H](O)CC[C@]3(C)[C@H]1CC2 [YC-6, 5α-androstane-3β,5,6β-triol] the LD50 at 1 week [1] was > 400 mg/kg and the Solubility in water (Solubility in water) was “low solubility in water”.
